Columns and labels:
[1] = Plasma stability and formation of treprostinil, human plasma; assay type: in vitro ADME; details: 1 μM, 37° C.
Procedure: (§1) Studies were carried out in mixed-gender human plasma male Sprague-Dawley rat plasma, and male Beagle dog plasma. All plasma was obtained from Bioreclamation and collected on K2EDTA. Plasma was adjusted to pH 7.4 prior to initiating the experiments. DMSO stocks were first prepared for the test articles. […] The vials were kept in a benchtop Thermomixer® for the duration of the experiment. […] Samples were stored at 4° C. until the end of the experiment. After the final time point was sampled, the plate was mixed and then centrifuged at 3000 rpm for 10 minutes.

[2] = molecular target: T1, prostaglandin E2 (PGE2) receptor 2 (EP2) (Homo sapiens, UniProt P43116); experiment: EP2 receptor cAMP assay (agonist mode); assay type: cell-based; details: cAMP, cells overexpressing human EP2
T1 construct: expressed in transfected cells; host or cells: HEK293T
T1 sequence (P43116 whole entry): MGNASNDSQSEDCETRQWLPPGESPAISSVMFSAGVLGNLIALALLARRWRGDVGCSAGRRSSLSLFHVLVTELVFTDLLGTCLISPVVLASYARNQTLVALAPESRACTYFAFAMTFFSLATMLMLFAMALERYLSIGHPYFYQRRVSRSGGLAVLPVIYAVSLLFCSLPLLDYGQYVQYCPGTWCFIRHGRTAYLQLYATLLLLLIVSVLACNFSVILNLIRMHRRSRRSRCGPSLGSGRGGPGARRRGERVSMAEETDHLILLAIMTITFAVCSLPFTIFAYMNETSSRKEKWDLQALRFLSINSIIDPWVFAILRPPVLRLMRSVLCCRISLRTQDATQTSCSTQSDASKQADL
Procedure: (§3) Assay Buffer: • EP1 Calcium and DP1 cAMP Assays: HBSS plus 20 mM HEPES • EP2 and IP1 cAMP Assays: 1 mM IBMX in HBSS plus 20 mM HEPES
(§4) Cells were thawed from frozen cells and resuspended in assay buffer at desired concentrations. cAMP or Calcium assays were performed according to the manufacturer's protocol using Multiscreen™ TR-FRET cAMP 1.0 No Wash Assay Kit or Multiscreen™ Calcium 1.0 No Wash Kit.
(§5) Gas Cyclic AMP (cAMP) Assay: In agonist mode testing, cells were seeded in a 384-well plate at an appropriate density and then were treated with compounds and incubated at 37° C. for 20 minutes. The reaction was terminated by sequentially adding sequentially adding trFluor™ Eu-labeled cAMP and trFluor™ 650-labeled anti-cAMP antibody in lysis buffer. […] All testing wells contained 0.1% DMSO in the final concentrations.
(§6) Data in graphs are represented in Mean±SD. Dose-dependent responses were fitted with sigmoidal dose-response curves allowing variable slopes using GraphPad Prism version 6 (Graphpad Prism).
(§7) These studies used cell lines overexpressing either human IP, EP2 or DP1, or EP1 receptors, and following incubation with varying concentrations of compounds, cAMP levels were measured using Fluorescence Resonance Energy Transfer (FRET).

[3] = Plasma stability and formation of treprostinil, dog plasma; assay type: in vitro ADME; details: 1 μM, 37° C.
Procedure: as §1

[4] = molecular target: T2, prostaglandin I2 (PGI2) receptor (IP) (Homo sapiens, UniProt P43119); experiment: IP receptor cAMP assay (agonist mode); assay type: cell-based; details: cAMP, cells overexpressing human IP
T2 construct: expressed in transfected cells; host or cells: CHO-K1
T2 sequence (P43119 whole entry): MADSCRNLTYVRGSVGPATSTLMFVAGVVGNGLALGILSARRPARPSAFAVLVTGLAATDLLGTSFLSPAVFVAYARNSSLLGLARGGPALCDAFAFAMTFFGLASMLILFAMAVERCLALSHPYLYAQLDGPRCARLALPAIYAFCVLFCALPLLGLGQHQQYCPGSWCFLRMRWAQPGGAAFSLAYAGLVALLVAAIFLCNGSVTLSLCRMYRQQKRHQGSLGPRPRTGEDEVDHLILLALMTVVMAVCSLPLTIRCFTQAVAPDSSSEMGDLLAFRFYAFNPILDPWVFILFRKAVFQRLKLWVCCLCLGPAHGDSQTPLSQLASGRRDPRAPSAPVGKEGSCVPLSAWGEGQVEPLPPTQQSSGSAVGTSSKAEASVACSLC
Procedure: as §3, §4, §5, §6, §7

[5] = Stability and formation of treprostinil in human cryopreserved hepatocytes
Procedure: (§2) Mixed-gender human cryopreserved hepatocytes, male Sprague-Dawley rat cryopreserved hepatocytes, and male Beagle dog cryopreserved hepatocytes were purchased from XenoTech. The hepatocytes were thawed and prepared according to the vendor's instructions, pooled into Krebs Henseleit buffer (KHB, pH 7.4), and kept on ice prior to the experiments. […] The final DMSO content in the incubation mixture was ≤0.1%. […] Aliquots of the test article were withdrawn (n=1) at 0, 15, 30, 60, and 120 minutes. […] Aliquots of 7-HC were withdrawn (n=1) at 0 and 15 minutes. The reaction was immediately terminated by adding two volumes of ice-cold acetonitrile (ACN) to the test article samples and three volumes of ACN containing internal standard to the positive control samples.

[6] = Stability and formation of treprostinil in rat cryopreserved hepatocytes
Procedure: as §2

[7] = Plasma stability and formation of treprostinil, rat plasma; assay type: in vitro ADME; details: 1 μM, 37° C.
Procedure: as §1

[8] = Stability and formation of treprostinil in simulated intestinal fluid; assay type: in vitro ADME; details: for Formation of Treprostinil, Concentration: SIF, prodrug dosed at 1 μM
Procedure: Studies were carried out in simulated intestinal fluid (SIF). SIF was prepared by dissolving 6.8 g of KH2PO4 in 250 mL of water, mixing, and then adding 77 mL of 0.2 N NaOH and 750 mL of water. Pancreatin (10 g) was added, mixed, and the pH was adjusted to pH 6.8 with 10 N NaOH. DMSO stocks were first prepared for the test articles. Aliquots of the DMSO solutions were dosed into 0.4 mL of matrix, which had been pre-warmed to 37° C., at a final test article concentration of 1 μM. The vials were kept in a benchtop Thermomixer® for the duration of the experiment. A separate tube was dosed for each time point in each matrix. At the appropriate times (0, 15, 30, 60, and 120 minutes), 0.8 mL of acetonitrile (ACN) containing 1% formic acid and internal standard was added directly to a single tube. Samples were mixed and then immediately stored at 4° C. until the end of the experiment. After the final time point was sampled, the plate was mixed and then centrifuged at 3000 rpm for 10 minutes. Aliquots of the supernatant were removed, diluted 1:1 into distilled water containing internal standard, and analyzed by LC-MS/MS against calibration standards prepared in a matched matrix. All samples were analyzed for the dosed prodrugs as well as the drug, treprostinil. The test article concentration was compared to the concentration at time 0 to determine the percent of test article remaining at each time point. Half-lives were calculated using GraphPad software, fitting to a single-phase exponential decay equation.

[9] = Stability and formation of treprostinil in dog cryopreserved hepatocytes
Procedure: as §2

[10] = Hydrolysis of treprostinil prodrugs to treprostinil at pH 6, 7 and 8 and 40 C; assay type: physicochemical
Source text: Tables 26, 27 and 28 present data for hydrolysis of selected treprostinil prodrugs at pH 6, 7 and 8, respectively, and 40 C.

treprostinil dicarbonate [Prodrug LXXI]
Half-Life [1]: >2 h
Activity at the EP2 receptor compared to treprostinil [2]: inactive
Half-Life [3]: >2 h
Activity at the IP receptor compared to treprostinil [4]: inactive
Treprostinil Concentration, 0 min [5]: 0 µM
Treprostinil Concentration, 15 min [5]: 0.118 µM
Treprostinil Concentration, 30 min [5]: 0.211 µM
Treprostinil Concentration, 60 min [5]: 0.273 µM
Treprostinil Concentration, 120 min [5]: 0.259 µM
Treprostinil Concentration, 0 min [6]: 0 µM
Treprostinil Concentration, 15 min [6]: 0.422 µM
Treprostinil Concentration, 30 min [6]: 0.403 µM
Treprostinil Concentration, 60 min [6]: 0.347 µM
Treprostinil Concentration, 120 min [6]: 0.292 µM
Half-Life [7]: <0.25 h
Half-Life ([8]; SIF pH 6.8, 1 μM, 37° C.): >2 h
Formation of Treprostinil, Concentration ([8]; 0 min): 0 µM
Formation of Treprostinil, Concentration ([8]; 15 min): 0 µM
Formation of Treprostinil, Concentration ([8]; 30 min): 0 µM
Formation of Treprostinil, Concentration ([8]; 60 min): 0 µM
Formation of Treprostinil, Concentration ([8]; 120 min): 0.0121 µM
Treprostinil Concentration, 0 min [9]: 0.00293 µM
Treprostinil Concentration, 15 min [9]: 0.501 µM
Treprostinil Concentration, 30 min [9]: 0.408 µM
Treprostinil Concentration, 60 min [9]: 0.348 µM
Treprostinil Concentration, 120 min [9]: 0.303 µM
Hydrolysis of prodrug to treprostinil, % Area, t = 1 week ([10]; pH 6, 40 C): 0.00 % Area
Hydrolysis of prodrug to treprostinil, % Area, t = 2 weeks ([10]; pH 6, 40 C): 0.00 % Area
Hydrolysis of prodrug to treprostinil, % Area, t = 3 weeks ([10]; pH 6, 40 C): 0.00 % Area
Hydrolysis of prodrug to treprostinil, % Area, t = 1 week ([10]; pH 7, 40 C): 0.00 % Area
Hydrolysis of prodrug to treprostinil, % Area, t = 2 weeks ([10]; pH 7, 40 C): 0.00 % Area
Hydrolysis of prodrug to treprostinil, % Area, t = 3 weeks ([10]; pH 7, 40 C): 0.00 % Area
Hydrolysis of prodrug to treprostinil, % Area, t = 1 week ([10]; pH 8, 40 C): 0.00 % Area
Hydrolysis of prodrug to treprostinil, % Area, t = 2 weeks ([10]; pH 8, 40 C): 0.00 % Area
Hydrolysis of prodrug to treprostinil, % Area, t = 3 weeks ([10]; pH 8, 40 C): 0.38 % Area
